O=C(O)c1ccccc1Nc1ccccc1
solubility (mole fraction)
Details	in ethanol	in methanol	in tert-butanol
283.15 K	0.0101	0.00519	–
285.65 K	0.0107	0.00556	–
288.15 K	0.0112	0.00606	–
290.65 K	0.0112	0.00653	–
293.15 K	0.0123	0.00701	–
295.65 K	0.0131	0.0073	–
298.15 K	0.0136	0.00796	0.0189
300.65 K	0.0144	0.00837	0.02
303.15 K	0.0154	0.00883	0.0225
305.65 K	0.0163	0.00916	0.0256
308.15 K	0.0175	0.00971	0.0279
310.65 K	0.0187	0.0103	0.0298
313.15 K	0.02	0.0117	0.0319
315.65 K	0.0221	0.0134	0.0353
318.15 K	0.0242	0.0156	0.0389
